In PMC9698716, “From Serendipity to Rational Identification of the 5,6,7,8-Tetrahydrobenzo[4,5]thieno[2,3-d]pyrimidin-4(3H)-one Core as a New Chemotype of AKT1 Inhibitors for Acute Myeloid Leukemia” (Pharmaceutics, 2022):

Tests used:
AKT1 = biological target: T1, AKT1 (Homo sapiens, UniProt P31749); assay: AKT1 enzymatic inhibition assay; format: biochemical
T1 construct: purchased Kinase Logistics, Meyn, Germany #Aps 01-101
Method: The studied compounds, including the standard inhibitor Staurosporine (Thermo-Fisher , Madrid, Spain, Invitrogen BP2541), were incubated with 3 nM AKT1 (#Aps 01-101; Kinase Logistics, Meyn, Germany) and 1.5 μM Profiler Pro peptide 6 (#760350; Perkin Elmer, Tres Cantos, Madrid, Spain) in the presence of different concentrations of Adenosine 5′triphosphate disodium salt, ATP (#A2383; Sigma Aldrich, Madrid, Spain) in a 384-well Microplate (#781076; Greiner, San Sebastián de los Reyes, Madrid, Spain). The reaction rate was calculated from kinetic measurements carried out measured in a Caliper EzReader LabChip 3000 (Caliper, Hopkinton, MA, USA) reader with samples taken each 10 min for a total time of 60 min. The percentage of substrate conversion rate was plotted versus the ATP concentration. The data was analyzed by non-linear fitting with GraphPad Prism by employing the Michaelis–Menten equation. The buffer assay used in the inhibition hAKT1 assay is: Hepes 100 mM, DMSO 4%, Brij 0.003%, Tween 20 0.004%, MgCl2 10 mM, with a pH = 7.5.
The Ki values were calculated by employing the GraphPad Prism equations.

IMS-M2 = assay: CellTiter Blue cell viability assay; format: cell-based, human; conditions: Homo sapiens, IMS-M2, 48 h; read-out: cellular IC50
From the text: (§1) The human AML cell lines, OCI-AML3 (carrying the NPM1 gene mutation A and the DNMT3A^R882C mutation), IMS-M2 (carrying the NPM1 gene mutation A), OCI-AML2 (with the wild-type NPM1 and DNMT3A^R635W mutation), and SKM-1 and MOLM-13 (with the wild-type NPM1) were previously reported. The cell lines were purchased from the Deutsche Sammelung von Mikroorganismen und Zellkulturen (DSMZ) (Braunschweig, Germany) cell bank and maintained according to the vendors’ instructions. Briefly, cultured cells were split every 3 days and maintained in an exponential growth phase. The cell lines were tested for mycoplasma using the Universal Mycoplasma Detection Kit (ATCC). The OCI-AML3 were grown in α-MEM supplemented with 20% fetal bovine serum, 100 U/mL penicillin, and 100 μg/mL streptomycin (P/S), and all other cell lines were cultured in RPMI and supplemented with a 10–20% fetal bovine serum and 100 U/mL penicillin and 100 μg/mL streptomycin. The cells were kept at 37 °C in a 5% CO2 incubator. Prior to screening, the appropriate cell concentration for all cell lines was determined. For the cell lines’ treatments, cells were maintained as follows: OCI-AML3 at 0.25 × 10^6/mL, OCI-AML2 and IMS-M2 at 0.35 × 10^6/mL, and SKM-1 and MOLM-13 at 0.5 × 10^6/mL. The compounds were re-suspended at 10 mM stock in DMSO. Further dilutions were performed in phosphate-buffer-saline (PBS) for pharmacological experiments. The cells were exposed to compounds at different concentrations for the indicated time points and sampled as described below. Briefly, the cells (4 × 10^5/mL) were seeded in 384-well plate and treated for 48 h with various concentrations (0.001 μM to 100 μM) of either one of the compounds, T101, T126, and T159, or NSC348884, as a positive control. Each plate included DMSO at 0.1% as a negative control. The metabolic cell activity was measured by using the CellTiter Blue proliferation agent (Roche) as described in the manufacturer’s procedure. Briefly, CellTiter Blue solution (Resazaurin) was added to each well and the plates were incubated at 37 °C with 5% CO2 for 4 h. During the incubation time, the resazurin is reduced to fluorescent resorufin in metabolically and proliferating living cells. The fluorescence intensity was measured using the automated Tecan plate reader (Tecan Group Ltd., Männedorf, Switzerland) at an excitation/emission wavelength of 531/572 nm. The fluorescence readouts were reported as relative fluorescence units (RFU) and read on a luminescence plate reader (Infinite 200 Pro, Tecan, CA, USA). The dose response curves ([…] (IC50)) were obtained by non-linear regression analysis using the GraphPad Prism 5.0 program. The concentration is shown as a logarithmic function. All the experiments were performed at least in triplicate, with technical repetition. The results are expressed as mean ± standard error of the mean (SEM). For the Colony Forming Unit (CFU) assay, 10 × 10^6 CD34+ human hematopoietic progenitors were received from unique healthy donors, upon signed informed consent, and were cultured in SFEM II (Serum-free medium) and P/S at a density of 1 × 10^6/mL with cytokines that are important for cell division and self-renewal: fms-like tyrosine kinase 3 (FLT3)-ligand, FLT3L (100 ng/mL), Stem Cell Factor, SCF (100 ng/mL) and Trombopoietin, and TPO (50 ng/mL) for 48 h before plating them on a Methocult medium.

MOLM-13 = assay: CellTiter Blue cell viability assay; format: cell-based, human; conditions: Homo sapiens, MOLM-13, 48 h; read-out: cellular IC50
From the text: as §1

OCI-AML2 = assay: CellTiter Blue cell viability assay; format: cell-based, human; conditions: Homo sapiens, OCI-AML2, 48 h; read-out: cellular IC50
From the text: as §1

OCI-AML3 [1] = assay: CellTiter Blue cell viability assay; format: cell-based, human; conditions: Homo sapiens, OCI-AML-3; OCI-AML3, 48 h; read-out: cellular IC50
From the text: as §1

SKM-1 = assay: CellTiter Blue cell viability assay; format: cell-based, human; conditions: Homo sapiens, SKM-1, 48 h; read-out: cellular IC50
From the text: as §1

OCI-AML3 [2] = assay: Cell growth, viable cell count by trypan blue exclusion; format: cell-based, human; conditions: OCI-AML3, 5 µM, at 48 and 72 h
[3] = UV-VIS titration assay with increasing MgCl2; format: physicochemical; conditions: 100 µM compound, up to 10 mM MgCl2
Method: The potential ability of T126 to chelate Mg^2+ ions was evaluated by spectrophotometric methods using a T70+ UV-Vis Spectrometer (PG Instruments, Leicestershire, UK) and a quartz cuvette with a 1 cm optical path. MgCl2. 5H2O 1M solution was prepared from powder (VWR International, Milan, Italy). The compound T126 was dissolved in DMSO to a final concentration of 10 mM and diluted with a milliQ water/DMSO mixture to a final concentration of 100 µM (4% DMSO). The obtained solution was placed in a cuvette and the UV-Vis spectra was recorded between 200 and 500 nm using water milliQ (with 4% DMSO) as reference. Thereafter, small volumes of MgCl2 aqueous solution were added both in the sample and in the reference cuvettes to obtain a series of solutions containing increasing concentrations of MgCl2 (1.25, 2.5, 5 and 10 mM), carefully pipetted for mixing, and the UV-Vis spectra were repeated. Each experiment was performed in triplicate.

T1 sequence (P31749 whole entry): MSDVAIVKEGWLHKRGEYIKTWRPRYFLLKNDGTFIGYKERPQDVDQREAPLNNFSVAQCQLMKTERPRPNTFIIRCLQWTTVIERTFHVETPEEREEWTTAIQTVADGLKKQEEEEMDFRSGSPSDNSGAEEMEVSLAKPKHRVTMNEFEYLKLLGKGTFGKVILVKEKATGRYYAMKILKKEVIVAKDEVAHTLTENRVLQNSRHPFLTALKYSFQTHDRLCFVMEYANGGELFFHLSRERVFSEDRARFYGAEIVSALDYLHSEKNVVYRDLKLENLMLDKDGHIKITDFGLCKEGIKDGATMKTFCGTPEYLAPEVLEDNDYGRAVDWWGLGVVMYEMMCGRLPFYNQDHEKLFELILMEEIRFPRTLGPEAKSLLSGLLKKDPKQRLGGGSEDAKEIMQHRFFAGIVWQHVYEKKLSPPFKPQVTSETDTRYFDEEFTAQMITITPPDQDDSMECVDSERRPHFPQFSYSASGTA

- IC50 (AKT1): 1.99 ± 0.11 µM
- inhibition at 10 µM (AKT1; 10 μM compound, read-out: %inh (percentage of inhibition of AKT1 activity)): 87%
- Ki (AKT1; read-out: Ki (AKT1 inhibition constant)): 0.41 µM
- IC50 (MOLM-13): 9.2 µM
- IC50 (OCI-AML2): 2.4 µM
- IC50 (OCI-AML3 [1]): 4.2 µM
- IC50 (SKM-1): 6.9 µM
- ability to chelate Mg^2+ ions [3]: inability of T126 to chelate Mg^2+ ions
SMILES: O=c1[nH]c(-c2ccc(O)c(O)c2)nc2sc3c(c12)CCCC3 [T126]
- IC50 (IMS-M2): 4.3 µM
- cell growth inhibition (OCI-AML3 [2]): significant cell growth inhibition
